# Assay results reported in PMC8699473, “An Easily Expandable Multi-Drug LC-MS Assay for the Simultaneous Quantification of 57 Oral Antitumor Drugs in Human Plasma” (Cancers, 2021).
# Assay: Long-term stability in spiked pooled human plasma
SMILES,"Long-term stability, 1 month, -20°C Accuracy [%] (validation standard 2xLLOV)","Long-term stability, 1 month, -80°C Accuracy [%] (validation standard 2xLLOV)","Long-term stability, 2 month, -20°C Accuracy [%] (validation standard 2xLLOV)","Long-term stability, 2 month, -80°C Accuracy [%] (validation standard 2xLLOV)","Long-term stability, 3 month, -20°C Accuracy [%] (validation standard 2xLLOV)","Long-term stability, 3 month, -80°C Accuracy [%] (validation standard 2xLLOV)","Long-term stability, 6 weeks, 4°C, without daylight Accuracy [%] (validation standard 2xLLOV)","Long-term stability, 1 month, -20°C Accuracy [%] (validation standard LLOV)","Long-term stability, 1 month, -80°C Accuracy [%] (validation standard LLOV)","Long-term stability, 2 month, -20°C Accuracy [%] (validation standard LLOV)","Long-term stability, 2 month, -80°C Accuracy [%] (validation standard LLOV)","Long-term stability, 3 month, -20°C Accuracy [%] (validation standard LLOV)","Long-term stability, 3 month, -80°C Accuracy [%] (validation standard LLOV)","Long-term stability, 6 weeks, 4°C, without daylight Accuracy [%] (validation standard LLOV)","Long-term stability, 1 month, -20°C Accuracy [%] (validation standard MOV)","Long-term stability, 1 month, -80°C Accuracy [%] (validation standard MOV)","Long-term stability, 2 month, -20°C Accuracy [%] (validation standard MOV)","Long-term stability, 2 month, -80°C Accuracy [%] (validation standard MOV)","Long-term stability, 3 month, -20°C Accuracy [%] (validation standard MOV)","Long-term stability, 3 month, -80°C Accuracy [%] (validation standard MOV)",further results
Cc1ccc(Nc2nccc(N(C)c3ccc4c(C)n(C)nc4c3)n2)cc1S(N)(=O)=O [Pazopanib],99.1,95.8,100.4,103.8,106.9,104.8,96.5,102.3,97.4,106.7,108.3,103.9,103.6,99.0,96.3,95.8,98.8,98.1,103.3,103.3,"Long-term stability, 6 weeks, 4°C, without daylight Accuracy [%] (validation standard MOV): 109.7%; Long-term stability, 1 month, -20°C Accuracy [%] (validation standard ULOV): 97.3%; Long-term stability, 1 month, -80°C Accuracy [%] (validation standard ULOV): 93.0%; Long-term stability, 2 month, -20°C Accuracy [%] (validation standard ULOV): 98.8%; Long-term stability, 2 month, -80°C Accuracy [%] (validation standard ULOV): 98.3%; Long-term stability, 3 month, -20°C Accuracy [%] (validation standard ULOV): 98.1%; Long-term stability, 3 month, -80°C Accuracy [%] (validation standard ULOV): 100.0%; Long-term stability, 6 weeks, 4°C, without daylight Accuracy [%] (validation standard ULOV): 98.9%"
Nc1cccc2c1C(=O)N(C1CCC(=O)NC1=O)C2=O (centres unmarked) [Pomalidomide],90.4,90.2,107.3,96.6,95.5,97.4,19.0,91.3,85.8,95.9,99.9,97.6,97.4,30.1,90.6,88.3,97.2,99.4,90.0,94.9,"Long-term stability, 6 weeks, 4°C, without daylight Accuracy [%] (validation standard MOV): 15.7%; Long-term stability, 1 month, -20°C Accuracy [%] (validation standard ULOV): 94.6%; Long-term stability, 1 month, -80°C Accuracy [%] (validation standard ULOV): 89.1%; Long-term stability, 2 month, -20°C Accuracy [%] (validation standard ULOV): 94.1%; Long-term stability, 2 month, -80°C Accuracy [%] (validation standard ULOV): 99.0%; Long-term stability, 3 month, -20°C Accuracy [%] (validation standard ULOV): 87.6%; Long-term stability, 3 month, -80°C Accuracy [%] (validation standard ULOV): 95.1%; Long-term stability, 6 weeks, 4°C, without daylight Accuracy [%] (validation standard ULOV): 11.3%"
